The target in the assay is Complement factor D (Homo sapiens, UniProt P00746). The assay can be described thus: Enzyme Assay: Human factor D (purified from human serum, Complement Technology, Inc.) at 80 nM final concentration is incubated with test compound at various concentrations for 5 minutes at room temperature in 50 mM Tris, 1M NaCl, pH 7.5. A synthetic substrate Z-L-Lys-SBzl and DTNB (Ellman's reagent) are added to final concentrations of 100 µM each. The increase in color is recorded at OD405 nm in a microplate in kinetic mode over 30 minutes with 30 second time points in a […]. IC50 values are calculated by non-linear regression from the percentage of inhibition of complement factor D activity as a function of test compound concentration.

The text below walks through data of ChEMBL document CHEMBL5726339, “Ether compounds for treatment of complement mediated disorders” (2017).

Sequence of Complement factor D (P00746 whole entry): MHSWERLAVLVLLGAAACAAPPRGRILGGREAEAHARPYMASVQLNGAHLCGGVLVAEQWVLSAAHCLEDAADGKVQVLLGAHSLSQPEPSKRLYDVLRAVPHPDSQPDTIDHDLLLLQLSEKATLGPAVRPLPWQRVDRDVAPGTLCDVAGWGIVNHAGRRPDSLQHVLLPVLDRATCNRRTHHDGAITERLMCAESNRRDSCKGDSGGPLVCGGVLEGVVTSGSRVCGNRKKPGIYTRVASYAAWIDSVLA

Regarding `CC(=O)c1cn(CC(=O)N2C[C@H](F)C[C@H]2C(=O)Nc2cccc(Br)n2)c2ccc(Oc3ncc(Br)cn3)cc12`, the concentration for half-maximal inhibition (IC50) (commonly the midpoint of a concentration-inhibition curve) is less than 1000 nM.

On to `CC(=O)c1cn(CC(=O)N2[C@@H]3C[C@@H]3C[C@H]2C(=O)Nc2cccc(-c3ccccc3Cl)c2F)c2ccc(Oc3ncc(Br)cn3)cc12`, for which the IC50 is less than 1000 nM.
